Assay results reported in the supplement of paper PMC3937590.

Key:
Experiment in all cases: -log10 GI50 (growth inhibition 50%) (-log10(M)); higher = more potent growth inhibition
[1] = tested on: 600MPE
How it was run: (§1)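 Breast cancer cell lines were exposed to each compound for 72 hours at nine doses in 1:5 serial dilution, in triplicate, with a luminescence read-out against a time-zero plate. A Gompertz curve was fitted to the dose-response data by nonlinear least squares. The value is minus log10 of GI50, the molar concentration giving the set level of growth inhibition. Values equal to the top dose carry a < qualifier.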

[2] = tested on: HCC2185
How it was run: as §1

[3] = tested on: MDAMB231
How it was run: as §1

[4] = tested on: 184A1
How it was run: as §1

[5] = tested on: MDAMB415
How it was run: as §1

[6] = tested on: SUM159PT
How it was run: as §1

[7] = tested on: MCF7
How it was run: as §1

[8] = tested on: HCC38
How it was run: as §1

[9] = tested on: MDAMB453
How it was run: as §1

[10] = tested on: BT549
How it was run: as §1

[11] = tested on: MDAMB175VII
How it was run: as §1

[12] = tested on: HCC1954
How it was run: as §1

[13] = tested on: MCF12A
How it was run: as §1

[14] = tested on: HCC1419
How it was run: as §1

[15] = tested on: MDAMB361
How it was run: as §1

[16] = tested on: HCC1143
How it was run: as §1

[17] = tested on: ZR75B
How it was run: as §1

[18] = tested on: BT474
How it was run: as §1

[19] = tested on: HCC1428
How it was run: as §1

[20] = tested on: AU565
How it was run: as §1

Row | Compound | -log10 GI50 [1] | -log10 GI50 [2] | -log10 GI50 [3] | -log10 GI50 [4] | -log10 GI50 [5] | -log10 GI50 [6] | -log10 GI50 [7] | -log10 GI50 [8] | -log10 GI50 [9] | -log10 GI50 [10] | -log10 GI50 [11] | -log10 GI50 [12] | -log10 GI50 [13] | -log10 GI50 [14] | -log10 GI50 [15] | -log10 GI50 [16] | -log10 GI50 [17] | -log10 GI50 [18] | -log10 GI50 [19] | -log10 GI50 [20]
1 | CC[C@H](CO)Nc1nc(NCc2ccccc2O)c2ncn(C(C)C)c2n1 [Olomoucine II] | 5.23 | 5.11 | 5.17 | 5.5 | 5.32 | 5.32 | 5.23 | 5.53 | 5.31 | 5.66 | 5.14 | 4.95 | 5.22 | 5.36 | 5.01 | 5.51 | 5.23 | 5.2 | 5.29 | 5.33
2 | O=C(/C=C/C#Cc1cccc(NS(=O)(=O)c2ccccc2)c1)NO [Oxamflatin] | 5.53 | 6.47 | 5.58 | 5.86 | 6.22 | 6.5 | 5.74 | 6.77 | 6.56 | 5.96 | 5.41 | 5.81 | 5.76 | 5.88 | 6.15 | 6.28 | 6.41 | 6.57 | 6.33 | 6.19
3 | CC(=O)O[C@H]1C(=O)[C@@]2(C)[C@H]([C@H](OC(=O)c3ccccc3)[C@]3(O)C[C@H](OC(=O)[C@H](O)[C@@H](NC(=O)c4ccccc4)c4ccccc4)C(C)=C1C3(C)C)[C@]1(OC(C)=O)CO[C@@H]1C[C@@H]2O [Paclitaxel] | 7.51 | 8.22 | 8.37 | 7.35 | 8.18 | 8.24 | 7.79 | 8.13 | 7.99 | 8.16 | 7.74 | 8.15 | 7.97 | 7.04 | 7.79 | 7.8 | 7.38 | 7.99 | 7.58 | 8.14
4 | CC(C)[C@H](CO)Nc1nc(Nc2cccc(Cl)c2)c2ncn(C(C)C)c2n1 [Purvalanol A] | 4.15 | 4.43 | < 3.78 | 4.62 | < 3.78 | < 3.78 | 4.29 | < 3.78 | < 3.78 | < 3.78 | 4.12 | 4.11 | 4.15 | < 3.78 | < 3.78 | < 3.78 | < 3.78 | < 3.78 | 4.18 | 4.39
